Measured values from paper PMC4436313, “Novel Heparan Sulfate-Binding Peptides for Blocking Herpesvirus Entry” (PLoS ONE, 2015).
Ends that are not written are not given here.

How the values were obtained:
MEF 10.1 cells = experiment: Visualization of bound biotinylated peptide by fluorescence microscopy; type: binding, Mouse; conditions: biotinylated peptide 1.6 μg/mL in PBS overnight at 4°C, fixed MEF cells, Alexa Fluor 594-conjugated streptavidin
Procedure: Coverslips with fixed MEF cells were prepared, washed in PBS, and blocked with 1% BSA/PBS for 5 min. Following a PBS wash, the nuclei were stained using Hoechst (Life Technologies Molecular Probes, Grand Island, NY) 1:100 in H2O for 30 min at 37°C. Cells were then blocked using a casein block solution (Scytek) for 5 min, AVIDIN/Biotin blocks (VECTOR) for 20 min each at room temperature (RT) followed by a 5 min PBS wash. Biotinylated p5+14 or CGGY-p5G (control) at 1.6 μg/mL in PBS was added and incubated overnight at 4°C. Following a PBS wash Alexa Fluor 594-conjugated streptavidin (Molecular Probes) was added at a 1:200 dilution in PBS for 1h at RT. Cells were then permeabilized with 0.2% Triton X-100 (Sigma) in PBS for 10 min at RT and washed with a solution of 1% BSA in PBS for 30 min. The cells were then stained with Alexa Fluor 488-conjugated phalloidin (Molecular Probes) at a 1:100 dilution of stock in 1% BSA/PBS, for 45 min at RT to visualize actin filaments. Slides were cover-slipped using a fluorescent mounting medium (Dako) to minimize photobleaching.
Fig 2 p5+14 binding to cells is charge dependent. (A) Predicted α-helix structure of peptide p5+14 based on ITASSER modeling. (B) Biotinylated peptide p5+14 (left panel) or CGGY-p5G (right panel) was added to MEF 10.1 cells followed by addition of Alexa Fluor 594-conjugated streptavidin (red). […]

[1] = test system: HCMV TB40/E-pp150-GFP adsorption to HFF cells; experiment: Flow cytometric analysis of attached virus; type: cell-based, Human cytomegalovirus; conditions: peptide 100μM, HFF cells at 4°C, 1/2 h, then HCMV TB40/E pp150-GFP MOI 10 for 1h; GFP MFI vs PBS treated cells; 3 replicates
Procedure: HFF cells were grown in a 24 well dish and allowed to reach ~80% confluency. The cells were cooled to 4°C to prevent virus internalization before addition of peptide (100μM) and incubated for ½ h. Following the incubation, HCMV TB40/E pp150-GFP was added (MOI 10) at 4°C and incubated for 1h. Following the incubation, cells were removed from the wells using non-enzymatic cell stripper solution (Corning), fixed (with paraformaldehyde) and the data acquired using a BD FACS Calibur flowcytometer (BD Biosciences). The data was analyzed using FlowJo software (TreeStar).
Fig 5 Peptide p5+14 blocks adsorption of MCMV. (A) MCMV was preincubated with p5+14 peptide (100 μM) before diluting the virus/peptide to an ineffective peptide concentration (1 μM) and assayed in the plaque reduction assay as described in materials and methods. As a control, virus and peptide (100 μM) were added to cells simultaneously. […] Plaque reduction was measured in a plaque reduction assay. […] (C) Adsorption of HCMV TB40/E-pp150-GFP (MOI 10) fusion protein expressing HCMV was measured via flowcytometry in the presence of p5+14 (green), control peptide CGGY-p5G (orange) and PBS (blue). […] Inset is a scatter plot of the mean fluorescence intensity (MFI) for GFP with the line representing average of 3 replicates +/- SD for the different treatments.

MCMV [2] = conditions: for Plaque Reduction (Average from Fig 1): peptide 500 μg/ml, incubated with MEF 10.1 cells 30 min prior to MCMV (~100 pfu/well), percent reduction vs PBS-treated control, three independent experiments, at least three replicates each
Procedure: Peptides were screened for their ability to reduce viral infection using a plaque reduction assay. Cells were cultured in 12-well (VERO) or 24-well culture plates (MEF 10.1 and HFF). When cells reached ~80% confluence the media was removed and washed once with PBS before addition of peptide. As a control, cells were incubated with PBS alone. After a 30 min incubation with peptide in PBS, virus (~100 pfu/well for MCMV and ~30–40 pfu/well for HCMV and HSV) was added and incubated for another 90 min (HSV and HCMV) or 60 min (MCMV). Following virus incubation the peptide/virus mixture was removed and replaced with 0.75% carboxymethyl cellulose (Sigma Aldrich, St. Louis, MO) (CMC) + complete media (DMEM + P/S + L-Gln) for MCMV and HSV experiments or 0.5% agarose (Lonza, Rockland, ME) in complete media for HCMV experiments. The plates were incubated at 37° C in 5% CO2 for 4 days and when plaques began to develop, plates were stained with Coomassie stain (AMRESCO, Solon, Ohio). Due to the inability of HCMV to form distinct plaques on HAEC and ARPE-19 cells, infection in these cell types was measured by counting mCherry positive foci 14 days post infection. Plaques were counted manually using a dissection microscope. Data was analyzed using Prism 5.0 (GraphPad Software, La Jolla, CA). Data were expressed as percent infection (100 x (number of plaques after treatment/ the number of plaques in the PBS-treated wells)).
Seven synthetic peptides based on the structure of peptide p5 were screened for their ability to reduce MCMV infection in vitro (Table 1). In the initial screening assays all peptides were tested at a single concentration (500 μg/ml) using a plaque-reduction assay, in which mouse embryonic fibroblasts were incubated with the peptides for 30 min prior to the addition of virus.
(A) Peptides (500 μg/ml) with different net charges and lengths were incubated with cells 30 min prior to addition of MCMV (~100 pfu/well). Bars represent the average of the percent reduction in infection compared to PBS-treated control from three independent experiments with at least three replicates in each + SD. (B) p5+14 and CGGY-p5G (control peptide) were serially diluted and assayed in a plaque reduction assay as described in materials and methods.

[3] = Self-aggregation of peptide (data not shown); type: physicochemical
MCMV [4] = experiment: Heparin blockade of peptide-mediated plaque reduction; type: cell-based, murine CMV (MCMV)
Procedure: Peptide p5+14 (100 μM) was pre-incubated with heparin sodium salt (Acros Organics, NJ) at different concentrations for 1 h at 37°C. This heparin/peptide mix was added to the cells and incubated for 30 min at 37°C. Following the incubation, supernatant was aspirated and cells washed once with PBS to remove unbound/excess heparin or peptide. The cells were subsequently infected with ~100 pfu/well of MCMV. To test whether heparin treatment of cells interferes with virus infection, MEF 10.1 cells in a 24 well dish were pre-incubated with different concentrations of heparin for 1 hour and washed as described above. Following this pre-incubation, infection was initiated as described above. Finally to test the effect of heparin treatment on the infectivity of virus, MCMV was incubated with different concentrations of heparin for 1h before infecting cells. For all treatments, virus was removed 1h post infection and cells were overlaid with CMC. Plates were incubated for 4 days before staining and counting the plaques.
Fig 3 Soluble heparin interferes with peptide inhibition of virus infection. The effect of heparin on the activity of peptide and MCMV viral infectivity in vitro when (A) pre-incubated with the peptide (100 μM), (B) incubated with the cells before adding virus, and (C) pre-incubated with virus alone in a plaque reduction assay. […]

Substance: CGGYSGAQGAQAGQAGQAQGAQGAQAGQAGQ [CGGY-p5G, uncharged p5 variant, replaces Lys with Gly throughout; control peptide]
- Binding of biotinylated peptide to mouse fibroblasts (MEF 10.1 cells): did not bind
- Fluorescent virus attached to the cell surface [1]: no reduction in fluorescence

Substance: CGGYSKAQKAQAKQAKQAQKAQKAQAKQAKQ [CGGY-p5, p5 variant with N-terminal Cys residue generated to facilitate incorporation of 99mTc]
- Plaque Reduction (Average from Fig 1) (MCMV [2]): ~61%
- Self-aggregation [3]: prone to self-aggregation

Substance: GGGYSKAQKAQAKQAKQAQKAQKAQAKQAKQ [p5]
- Plaque Reduction (Average from Fig 1) (MCMV [2]): ~53%

Substance: GGGYSRAQRAQARQARQAQRAQRAQARQARQ [p5R]
- Blocking of viral infection compared to peptide p5 (MCMV [2]; from Fig 1A, 500 μg/ml, MCMV): 2 fold
- Plaque Reduction (Average from Fig 1) (MCMV [2]): ~75%

Substance: GGGYSKAQKAQAKQAKQAQKAQKAQAKQAKQAQKAQKAQAKQAKQ [p5+14]
- IC50 (MCMV [2]; read-out: IC50, reduction of MCMV infection, serial dilution of peptide, plaque reduction assay, MEF 10.1): 5.2 µM

Substance: MPRRR RIRRR QK [G2, reference compound]
- Reduction in MCMV infection at 10 μM (MCMV [2]; peptide 10 μM, plaque reduction assay, comparison p5+14 vs G2): ineffective
- Inhibition of MCMV infection at 100 μM (MCMV [2]; peptide 100 μM, plaque reduction assay, comparison p5+14 vs G2): effectively inhibited MCMV infection

Substance: heparin sodium salt
- Reduction of infection, heparin pre-incubated with MCMV (MCMV [4]; MCMV incubated with heparin 1 h without peptide, all heparin concentrations ≥ 2 μg/mL): > 80%
- MCMV infection after pre-incubation of the cells with heparin (MCMV [4]; MEF 10.1 cells pre-incubated with heparin 1 hour and washed prior to virus addition, no peptide): did not alter MCMV infection
